# Test: Dissolution experiments on tablets (Prolabo dissolution apparatus)
# Assay type: physicochemical
# Conditions: for dissolution rate of the sugar matrix (Anthrone assay): tablets with diazepam, water, 37° C., 100 rpm
# Protocol: After compaction the tablets were weighed and subsequently submitted to dissolution experiments.
# Dissolution was performed on a Prolabo dissolution apparatus, Rowa Techniek B.V. All experiments were conducted at 37° C. in 1000 mL under constant stirring with 100 rpm. Tablets prepared from physical mixtures and solid dispersions were analysed in triplicate.
# To determine the sugar concentrations the Anthrone assay was used. (Scott et al. 1953) Samples were taken at appropriate intervals during the dissolution. […] Due to the enthalpy of mixing, the sample was heated to its boiling point. The boiling mixture was then cooled to room temperature. After 45 minutes the sample was vortexed and […] of sample was analysed in the plate reader at 630 nm. […] In every Anthrone assay a calibration curve of the appropriate sugar in the appropriate medium was established.
SMILES,dissolution rate of the sugar matrix (Anthrone assay),release of drug from physical mixture tablets,release of drug from solid dispersion tablets
OC[C@H]1O[C@H](O[C@H]2O[C@H](CO)[C@@H](O)[C@H](O)[C@H]2O)[C@H](O)[C@@H](O)[C@@H]1O [trehalose],dissolve faster compared to the inulins,,
OC[C@H]1O[C@@](CO)(O[C@H]2O[C@H](CO)[C@@H](O)[C@H](O)[C@H]2O)[C@@H](O)[C@@H]1O [sucrose],dissolve faster compared to the inulins,,
"CN1C(=O)CN=C(c2ccccc2)c2cc(Cl)ccc21 [diazepam, Diazepam]",,fast compared to the solid dispersions,fast release
